From patent US10814010B2, “FOXC2 inhibitor and methods of use thereof” (The Board of Regents of The University of Texas System, priority 2018, dated 2020) come the findings set out here.

Assay [1] deals with MDA-MB-231 cells. In words: Western blot of FOXC2 target/non-target genes, EMT, CSC and apoptosis markers in MDA-MB-231. It is filed as cell-based. To be noted: MDA-MB-231, 20 μM. As to the method: MC-1-F2's effect on FOXC2-mediated transcription was examined by measuring PDGFR-β expression levels, a downstream effector of FOXC2 (Hollier et al., 2013). […] (FIGS. 16A&B). To validate the specificity of the ligand to FOXC2, Western blot analysis was carried out on the non-target genes of FOXC2, p38 and GSK3P3.
Next, it was examined if FOXC2 inhibition by MC-1-F2 can affect EMT progression. […] It has been shown that inhibition of downstream or upstream targets of other EMT-associated transcription factors such as Snail, Slug and Twist leads to the decreased EMT progression, through the re-expression of E-cadherin (Bachelder et al., 2005; Ren et al., 2013). However, the impact of direct inhibition of EMT-associated transcription factors including FOXC2 on EMT progression has never been explored until now due to the lack of small molecule inhibitors directly targeting these transcription factors.
As EMT is known to bestow on cells CSC-like properties (Hollier et al., 2013), MC-1-F2 should be able to repress CSC characteristics in cells undergoing EMT. In order to examine the effects of MC-1-F2 on CSC properties, a Western blot analysis of MDA-MB-231 cell with and without treatment of MC-1-F2 was carried out, analyzing the CSC markers c-Myc, KLF4, and Nanog. […] In order to further evaluate the effect of MC-1-F2 on CSC properties and EMT progression, β-catenin nuclear localization was examined (FIG. 5D). β-catenin is involved in both EMT progression and acquisition of CSC properties (Kalluri & Weinberg, 2009, Schmalhofer et al., 2009). A repression of E-cadherin has shown to initiate a nuclear localization of β-catenin, leading to an initiation of several EMT signals (Schmalhofer et al., 2009). Moreover, nuclear localization β-catenin is the hallmark of an active Wnt pathway, a major pathway that contributes to CSC properties (Beck & Blanpain, 2013). […] Only nuclear fraction of β-catenin bestows CSC properties on cells.
50 μg of total protein per sample was incubated with 4× loading buffer at 100° C. for 5 min. Protein samples were then loaded into a polyacrylamide gel and subjected to SDS-PAGE. Resolved proteins were then transferred by a wet transfer method to a PVDF membrane at 100 V for 1 hour using a BioRad Mini Trans-Blot Electrophoresis Transfer Cell. Upon the completion of wet transfer, the membrane was then blocked with 5% (w/v) fat-free milk in 1× Tris-buffered saline/0.1% (v/v) Tween-20 (TBS-T) for at least 1 hour. Then incubated with the respective primary antibodies diluted in 5% BSA in 1×TBST at 4° C. overnight. The following day exposed to 1:1000 dilution of anti-mouse or anti-rabbit HRP-conjugated secondary antibodies in 5% (w/v) fat-free milk in 1×TBS-T for 1 hour at room temperature. The probed proteins were then detected for chemiluminescent signal using SuperSignal Chemiluminescent Substrate (PIERCE). Pierce antibodies: B-actin, and all other antibodies used are from cell signaling. MG132 treatment was added to cells (0.5 μM) for 1-hour incubation prior to compound treatment, no more than 24 hours total exceeded during MG132 incubation.

The test system of assay [2] is PC3 cells. Briefly: MTT cell viability assay, PC3. It is filed as cell-based. To be noted: Homo sapiens, PC-3, 24 hour treatment. The source says: Inhibition of EMT in CRPC could lead to a new form of therapeutics to aid once androgen-independence is achieved. However, in order for MC-1-F2 to be considered an effective chemotherapeutic agent, its EC50 in prostate cancer needed to be determined as well as how it compares to other chemotherapeutic agents on the market and whether it is able to inhibit chemoresistance or lower the sensitivity of CRPC to commercially available drugs. In order to determine the EC50 of MC-1-F2, an MTT assay on cell viability was performed in both DU145 and PC3. […] These doses are higher than those encountered with breast cancer cell lines. This is most likely due to the lower FOXC2 expression levels founds in prostate cell lines when compared to the breast cell lines.
Cell viability was assessed by MTT (3-(4,5-Dimethylthiazol-2-yl)-2,5-Diphenyltetrazolium Bromide) assay 5,000 cells were seeded on a 96-well cell culture plate and were incubated for at least 24 hours prior to drug treatment. The MTT reagent (Fisher Scientific) was added to the culture medium 3 hours prior to the end of compound incubation. The reaction took place in the 37° C. incubator with 5% CO2 for 3 hours. Cell culture medium was then removed from the wells. Cells with the insoluble purple formazan were lysed with DMSO for 10 mins at room temperature, 200 μL per well. Absorbance was read at 570 nm using a plate reader.

Setting [3] is: 48 hours, non-target gene of FOXC2.

As to `N=C(N)NCCCCNc1nc(Nc2ccc(Oc3ccccc3)cc2)nc(N2CCN(c3nc(N)nc(Nc4ccc(N5CCOCC5)cc4)n3)CC2)n1` [MC-1-F2], the PDGFR-β expression levels entry in assay [1] (24 or 48 hours) is reported as “decrease in PDGFR-β expression levels”. For the same molecule, in assay [1] (48 hours), the E-cadherin expression result is on record as “increase E-cadherin expression”, the “KLF4 expression (CSC marker)” value is on record as “decrease”, the MMP2 expression result is reported as “downregulated the expression” and the N-cadherin expression entry was “downregulation of N-cadherin”. In assay [1] (48 hours), the “Nanog expression (CSC marker)” value is “no statistical difference”, the Slug expression result is listed as “decrease in other mesenchymal markers”, the Snail protein level entry is listed as “did not affect the protein level” and the Vimentin expression result was “decrease in other mesenchymal markers”. In assay [1] (48 hours), the ZEB1 expression result is recorded as “downregulate ZEB1”; the “c-Myc expression (CSC marker)” value is “decrease”; the “cytosolic fraction of β-catenin” value is given as “increase in the cytosolic fractions”; the “induction of apoptosis (Western blot of Bad, phospho-Bad, Bak, Bax)” value is listed as “induction of an apoptosis”. Further, the “nuclear fraction of β-catenin” value in assay [1] (48 hours) was “decrease in the nuclear fraction”. In assay [1] (setting [3]), the GSK3β expression levels result was “no effect on the expression levels” and the p38 expression levels result is “no effect on the expression levels”. In addition, the EC50 in assay [2] came out at 46.6 µM.
